According to PMC4406878 (Pharmaceutical research, 2011):

Tested on: PSMA
Settings: 2 nM DHT, 48 h, 5% charcoal-stripped FBS RPMI-1640, Western blot

C[C@]12CCC(=O)C[C@@H]1CC[C@@H]1[C@@H]2CC[C@]2(C)[C@@H](O)CC[C@@H]12 [DHT, 5-α-dihydrotestosterone]
PSMA expression in LNCaP cells: substantially inhibited
